Reference: US20220235057A1, “CYCLIC FORMYL AND CYCLIC KETONE COMPOUNDS, PREPARATION METHOD THEREFOR, AND PHARMACEUTICAL USE” (priority 2019, published 2022)

Tested on: drug resistant strains of Acinetobacter baumannii
Assay: anti-drug resistant strains of Acinetobacter baumannii (inhibition zone); further: test concentration or dose not given here
Assay type: cell-based
[1] = resistant strain of Acinetobacter baumannii no. 16
[2] = resistant strain of Acinetobacter baumannii no. 17
[3] = resistant strain of Acinetobacter baumannii no. 18
[4] = resistant strain of Acinetobacter baumannii no. 19
[5] = resistant strain of Acinetobacter baumannii no. 20

SMILES	inhibition zone, diameter [1] [mm]	inhibition zone, diameter [2] [mm]	inhibition zone, diameter [3] [mm]	inhibition zone, diameter [4] [mm]	inhibition zone, diameter [5] [mm]
O=C1C2CCCCN2C(c2ccc(O)cc2)N1Nc1ccccc1 (single isomer, unassigned) [ZKD-4A]	58	40	66	68	62
CC1(C)OB(c2ccc([C@@H]3N(Nc4ccccc4)C(=O)C4CCCCN43)cc2)OC1(C)C (stereo partly drawn) [ZKD-15A]	46	50	40	68	68
CC1(C)OB(c2ccc([C@H]3N(Nc4ccccc4)C(=O)C4CCCCN43)cc2)OC1(C)C (stereo partly drawn) [ZKD-15B]	67	68	40	68	68
COc1ccc(C2N(Nc3ccccc3)C(=O)C3CCCCN32)cc1OC (stereo not drawn) [ZKD-6A]	45	43	20	25	64
O=C1C2CCCCN2[C@@H](c2ccco2)N1Nc1ccccc1 (stereo partly drawn) [ZKD-5B]	68	48	48	55	68
O=C1C2CCCCN2[C@H](c2ccco2)N1Nc1ccccc1 (stereo partly drawn) [ZKD-5A]	68	68	68	68	68
COc1cc([C@@H]2N(Nc3ccccc3)C(=O)C3CCCCN32)ccc1O (stereo partly drawn) [ZKD-18A]	68	68	68	68	68
O=C1C2CCCCN2[C@@H](c2ccc(B(O)O)cc2)N1Nc1ccccc1 (stereo partly drawn) [ZKD-10B]	39	48	45	46	54
Cc1cnc2c(S(=O)(=O)N3CCCCC3C(=O)NNc3ccc(F)cc3)cccc2c1 (stereo not drawn) [ZKD-21]	60	48	53	64	68
COc1ccc(CC2N(Nc3ccccc3)C(=O)C3CCCCN32)cc1O (single isomer, unassigned) [ZKD-12A]	65	68	68	58	68
COc1ccc([C@@H]2N(Nc3ccccc3)C(=O)C3CCCCN32)cc1O (stereo partly drawn) [ZKD-19A]	68	68	68	68	68
COc1ccc(CC2N(Nc3ccccc3)C(=O)C3CCCCN32)cc1OC (single isomer, unassigned) [ZKD-13B]	68	68	36	64	68
O=C(NNc1ccc(F)cc1)c1ncc[nH]1 [ZBM-28]	51	68	64	64	68
O=C(NNc1ccc(F)cc1)[C@@H]1Cc2ccccc2CN1 [ZSD-54]	50	58	47	68	68
O=C(NNc1ccc(F)cc1)C1CCc2ccccc2N1 (stereo not drawn) [ZXD-F]	65	68	68	68	68
